Test results published in ChEMBL document CHEMBL1201861, “Genomics of Drug Sensitity in Cancer screening data, Wellcome Trust Sanger Institute”.

Assays:
Type in all cases: functional, cell-based
ECC12 = assay: cells; conditions: Homo sapiens
Description: SANGER: Inhibition of human ECC12 cell growth in a cell viability assay.

SKM-1 = assay: SANGER: Inhibition of human SKM-1 cell growth in a cell viability assay.
CRO-AP2 = assay: SANGER: Inhibition of human CRO-AP2 cell growth in a cell viability assay.
EW-12 = assay: SANGER: Inhibition of human EW-12 cell growth in a cell viability assay.
NCI-H2227 = assay: cells; conditions: Homo sapiens;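 also: growth inhibition of the human cell line, read out with a cell viability assay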
Description: SANGER: Inhibition of human NCI-H2227 cell growth in a cell viability assay.

NCI-H2107 = assay: SANGER: Inhibition of human NCI-H2107 cell growth in a cell viability assay.
RL95-2 = assay: cells; conditions: Homo sapiens;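 also: RL95-2 growth inhibition determined through a cell viability readout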
Description: SANGER: Inhibition of human RL95-2 cell growth in a cell viability assay.

NCI-H128 = assay: SANGER: Inhibition of human NCI-H128 cell growth in a cell viability assay.
KNS-62 = assay: cells; conditions: Homo sapiens;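 also: inhibition of cell growth, read out with a cell viability assay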
Description: SANGER: Inhibition of human KNS-62 cell growth in a cell viability assay.

TGBC11TKB = assay: cells; conditions: Homo sapiens;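 also: growth inhibition of human TGBC11TKB cells, measured by a cell viability assay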
Description: SANGER: Inhibition of human TGBC11TKB cell growth in a cell viability assay.

A549 = assay: cells; conditions: Homo sapiens;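 also: growth inhibition of A549 cells, read out with a cell viability assay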
Description: SANGER: Inhibition of human A549 cell growth in a cell viability assay.

ECC10 = assay: cells; conditions: Homo sapiens;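 also: growth inhibition of ECC10 cells, read out by a cell viability assay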
Description: SANGER: Inhibition of human ECC10 cell growth in a cell viability assay.

NCI-H2029 = assay: cells; conditions: Homo sapiens;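 also: Read-out is a viability assay on the cultured cells, and IC50 is the concentration that suppresses cell growth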
Description: SANGER: Inhibition of human NCI-H2029 cell growth in a cell viability assay.

NCI-H1975 = assay: cells; conditions: Homo sapiens
Description: SANGER: Inhibition of human NCI-H1975 cell growth in a cell viability assay.

ZR-75-30 = assay: cells; conditions: Homo sapiens;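 also: growth inhibition of ZR-75-30 cells, measured with a cell viability readout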
Description: SANGER: Inhibition of human ZR-75-30 cell growth in a cell viability assay.

NCI-H1666 = assay: cells; conditions: Homo sapiens;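 also: growth inhibition of the cell line, read out with a cell viability assay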
Description: SANGER: Inhibition of human NCI-H1666 cell growth in a cell viability assay.

EPLC-272H = assay: cells; conditions: Homo sapiens
Description: SANGER: Inhibition of human EPLC-272H cell growth in a cell viability assay.

NCI-H1048 = assay: cells; conditions: Homo sapiens;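 also: growth inhibition of human NCI-H1048 cells, read out with a cell viability assay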
Description: SANGER: Inhibition of human NCI-H1048 cell growth in a cell viability assay.

YH-13 = assay: cells; conditions: Homo sapiens;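 also: cell viability readout of growth suppression in the human YH-13 cell line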
Description: SANGER: Inhibition of human YH-13 cell growth in a cell viability assay.

H-EMC-SS = assay: cells; conditions: Homo sapiens
Description: SANGER: Inhibition of human H-EMC-SS cell growth in a cell viability assay.

LU-135 = assay: cells; conditions: Homo sapiens
Description: SANGER: Inhibition of human LU-135 cell growth in a cell viability assay.

BT-549 = assay: cells; conditions: Homo sapiens
Description: SANGER: Inhibition of human BT-549 cell growth in a cell viability assay.

CFPAC-1 = assay: cells; conditions: Homo sapiens;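 also: cell viability readout used to gauge suppression of CFPAC-1 cell proliferation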
Description: SANGER: Inhibition of human CFPAC-1 cell growth in a cell viability assay.

SW 1116 = assay: cells; conditions: Homo sapiens;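 also: growth inhibition of SW1116 cells, read out with a cell viability assay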
Description: SANGER: Inhibition of human SW1116 cell growth in a cell viability assay.

H9 = assay: cells; conditions: Homo sapiens
Description: SANGER: Inhibition of human H9 cell growth in a cell viability assay.

NBsusSR = assay: cells; conditions: Homo sapiens;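 also: growth inhibition of the human cell line, read out with a cell viability assay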
Description: SANGER: Inhibition of human NBsusSR cell growth in a cell viability assay.

RH-18 = assay: cells; conditions: Homo sapiens, Rh18;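 also: growth inhibition of human RH-18 cells, read out with a cell viability assay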
Description: SANGER: Inhibition of human RH-18 cell growth in a cell viability assay.

TI-73 = assay: cells; conditions: Homo sapiens;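 also: cell viability assay measuring how much compounds suppress growth of the cultured cell line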
Description: SANGER: Inhibition of human TI-73 cell growth in a cell viability assay.

OC-314 = assay: cells; conditions: Homo sapiens
Description: SANGER: Inhibition of human OC-314 cell growth in a cell viability assay.

SW900 = assay: cells; conditions: Homo sapiens;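 also: IC50 is the concentration that inhibits SW900 cell growth, measured by a cell viability assay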
Description: SANGER: Inhibition of human SW900 cell growth in a cell viability assay.

CHP-134 = assay: SANGER: Inhibition of human CHP-134 cell growth in a cell viability assay.
KP-N-RT-BM-1 = assay: SANGER: Inhibition of human KP-N-RT-BM-1 cell growth in a cell viability assay.
CP67-MEL = assay: SANGER: Inhibition of human CP67-MEL cell growth in a cell viability assay.

Q: How did the IC50 (ECC12) turn out when `CCn1c(-c2nonc2N)nc2cnc(Oc3cccc(NC(=O)c4ccc(OCCN5CCOCC5)cc4)c3)cc21` [GSK-269962A] was run?
A: > 2500 nM

Q: What about the IC50 (SKM-1) of the same compound?
A: > 2500 nM

Q: What about the IC50 (CRO-AP2) of the same compound?
A: 2360 nM

Q: What about the IC50 (EW-12) of the same compound?
A: > 2500 nM

Q: What about the IC50 (NCI-H2227) of the same compound?
A: > 2500 nM

Q: What about the IC50 (NCI-H2107) of the same compound?
A: > 2500 nM

Q: What about the IC50 (RL95-2) of the same compound?
A: > 2500 nM

Q: And the IC50 (NCI-H128)?
A: > 2500 nM

Q: `C[C@]12O[C@H](C[C@]1(O)CO)n1c3ccccc3c3c4c(c5c6ccccc6n2c5c31)CNC4=O` [LESTAURTINIB] was tested. Which IC50 (KNS-62) did it give?
A: > 2000 nM

Q: And the IC50 (TGBC11TKB)?
A: 1410 nM

Q: And the IC50 (A549)?
A: 194 nM

Q: What about the IC50 (ECC10) of the same compound?
A: 311 nM

Q: And the IC50 (NCI-H2029)?
A: > 2000 nM

Q: And the IC50 (NCI-H1975)?
A: 1250 nM

Q: What about the IC50 (ZR-75-30) of the same compound?
A: > 2000 nM

Q: And the IC50 (NCI-H1666)?
A: 1890 nM

Q: What about the IC50 (EPLC-272H) of the same compound?
A: 154 nM

Q: What about the IC50 (NCI-H1048) of the same compound?
A: 141 nM

Q: What about the IC50 (YH-13) of the same compound?
A: 135 nM

Q: What about the IC50 (H-EMC-SS) of the same compound?
A: 425 nM

Q: What about the IC50 (LU-135) of the same compound?
A: > 2000 nM

Q: What about the IC50 (BT-549) of the same compound?
A: 163 nM

Q: And the IC50 (CFPAC-1)?
A: > 2000 nM

Q: And the IC50 (SW 1116)?
A: > 2000 nM

Q: What about the IC50 (H9) of the same compound?
A: 34.8 nM

Q: What about the IC50 (NBsusSR) of the same compound?
A: 162 nM

Q: And the IC50 (RH-18)?
A: > 2000 nM

Q: What about the IC50 (TI-73) of the same compound?
A: 235 nM

Q: And the IC50 (OC-314)?
A: 1840 nM

Q: And the IC50 (SW900)?
A: 1410 nM

Q: For `CC(=O)c1c(C)c2cnc(Nc3ccc(N4CCNCC4)cn3)nc2n(C2CCCC2)c1=O` [PALBOCICLIB], which IC50 (KNS-62) is on record?
A: > 4000 nM

Q: What about the IC50 (TGBC11TKB) of the same compound?
A: > 4000 nM

Q: And the IC50 (A549)?
A: 1290 nM

Q: What about the IC50 (ECC10) of the same compound?
A: 2700 nM

Q: What about the IC50 (NCI-H2029) of the same compound?
A: > 4000 nM

Q: And the IC50 (ZR-75-30)?
A: > 4000 nM

Q: What about the IC50 (EPLC-272H) of the same compound?
A: > 4000 nM

Q: And the IC50 (NCI-H1048)?
A: > 4000 nM

Q: What about the IC50 (YH-13) of the same compound?
A: 3440 nM

Q: And the IC50 (H-EMC-SS)?
A: > 4000 nM

Q: And the IC50 (LU-135)?
A: > 4000 nM

Q: And the IC50 (BT-549)?
A: > 4000 nM

Q: And the IC50 (CFPAC-1)?
A: > 4000 nM

Q: And the IC50 (SW 1116)?
A: > 4000 nM

Q: And the IC50 (H9)?
A: 495 nM

Q: What about the IC50 (NBsusSR) of the same compound?
A: 743 nM

Q: And the IC50 (RH-18)?
A: > 4000 nM

Q: What about the IC50 (TI-73) of the same compound?
A: > 4000 nM

Q: And the IC50 (CHP-134)?
A: 1120 nM

Q: What about the IC50 (OC-314) of the same compound?
A: > 4000 nM

Q: Which results are given for `Cc1[nH]c(/C=C2\C(=O)Nc3ccc(S(=O)(=O)Cc4c(Cl)cccc4Cl)cc32)c(C)c1C(=O)N1CCC[C@@H]1CN1CCCC1` [PHA-665752]?
A: IC50 (SKM-1): > 2000 nM; IC50 (CRO-AP2): > 2000 nM; IC50 (EW-12): > 2000 nM; IC50 (KP-N-RT-BM-1): > 2000 nM; IC50 (CP67-MEL): > 2000 nM; IC50 (RL95-2): > 2000 nM; IC50 (NCI-H128): > 2000 nM

Q: Which results are given for `CCCS(=O)(=O)Nc1ccc(F)c(C(=O)c2c[nH]c3ncc(Cl)cc23)c1F` [PLX-4720]?
A: IC50 (KNS-62): > 10000 nM; IC50 (TGBC11TKB): > 10000 nM; IC50 (A549): > 10000 nM; IC50 (ECC10): > 10000 nM; IC50 (NCI-H2029): > 10000 nM; IC50 (ZR-75-30): > 10000 nM; IC50 (NCI-H1666): > 10000 nM; IC50 (EPLC-272H): > 10000 nM; IC50 (NCI-H1048): > 10000 nM; IC50 (YH-13): > 10000 nM; IC50 (H-EMC-SS): > 10000 nM; IC50 (LU-135): > 10000 nM; IC50 (BT-549): > 10000 nM; IC50 (CFPAC-1): > 10000 nM; IC50 (SW 1116): > 10000 nM; IC50 (NBsusSR): > 10000 nM; IC50 (RH-18): > 10000 nM; IC50 (TI-73): 6010 nM; IC50 (CHP-134): > 10000 nM; IC50 (OC-314): > 10000 nM; IC50 (SW900): > 10000 nM

Q: Which IC50 (KNS-62) does the source give for `CC[C@]1(O)C[C@@H]2CN(CCc3c([nH]c4ccccc34)[C@@](C(=O)OC)(c3cc4c(cc3OC)N(C)[C@H]3[C@@](O)(C(=O)OC)[C@H](OC(C)=O)[C@]5(CC)C=CCN6CC[C@]43[C@@H]65)C2)C1` [VINBLASTINE] here?
A: 5.8 nM

Q: And the IC50 (TGBC11TKB)?
A: 15.8 nM

Q: And the IC50 (A549)?
A: 4.95 nM

Q: And the IC50 (ECC10)?
A: 21.2 nM

Q: What about the IC50 (NCI-H2029) of the same compound?
A: > 100 nM

Q: What about the IC50 (NCI-H1975) of the same compound?
A: 24.2 nM

Q: What about the IC50 (ZR-75-30) of the same compound?
A: > 100 nM

Q: What about the IC50 (NCI-H1666) of the same compound?
A: 20.1 nM

Q: And the IC50 (EPLC-272H)?
A: 10.8 nM

Q: And the IC50 (NCI-H1048)?
A: 10.1 nM

Q: And the IC50 (YH-13)?
A: 3.7 nM

Q: And the IC50 (H-EMC-SS)?
A: > 100 nM

Q: And the IC50 (LU-135)?
A: 35.6 nM

Q: And the IC50 (BT-549)?
A: 7.98 nM

Q: And the IC50 (CFPAC-1)?
A: 93.2 nM

Q: What about the IC50 (SW 1116) of the same compound?
A: > 100 nM

Q: What about the IC50 (H9) of the same compound?
A: 2.25 nM

Q: What about the IC50 (NBsusSR) of the same compound?
A: 3.23 nM

Q: What about the IC50 (RH-18) of the same compound?
A: > 100 nM

Q: And the IC50 (TI-73)?
A: 3.21 nM

Q: And the IC50 (OC-314)?
A: 2.22 nM

Q: And the IC50 (SW900)?
A: 25.4 nM
